The values below come from US6906069B1, “LXR modulators” (Amgen Inc., priority 1999, dated 2005).

The assay has as its target T1, LXRα (Homo sapiens, UniProt Q13133).
T1 construct: expressed in transfected cells; host or cells: 293 cells
T1 sequence (Q13133 209-447 limits assumed): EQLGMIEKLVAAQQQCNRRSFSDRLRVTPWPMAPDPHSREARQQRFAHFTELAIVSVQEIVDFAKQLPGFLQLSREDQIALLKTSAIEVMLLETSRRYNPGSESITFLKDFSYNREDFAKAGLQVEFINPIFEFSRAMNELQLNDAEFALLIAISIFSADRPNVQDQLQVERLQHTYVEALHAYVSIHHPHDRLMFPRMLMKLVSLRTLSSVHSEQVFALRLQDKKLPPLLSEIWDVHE
Kind of assay: cell-based GAL4-LXRα ligand-binding domain luciferase reporter screen for agonists. Particulars: 10 μM compound; transfected 293 cells; relative to control (no additional compound) assigned a value of 1. The method, then:
In order to identify agonists for LXRα, a cell-based high throughput screen was developed. Briefly, a DNA-binding domain of the nonreceptor transcription factor GAL4 was fused to the putative ligand-binding domain of LXRα. The resulting construct was introduced into 293 cells, together with an UAS-containing luciferase reporter construct. The transfected cells were then treated with the compounds and luciferase activity was measured. Individual compounds were evaluated relative to a control (no additional compound) at a concentration of 10 μM. Relative luciferase activity is provided below for five of the compounds described in the Examples above (luciferase activity of the control was assigned a value of 1).
For orientation: Reporter assays use an easily measured gene product as a stand-in for the process of interest.

For the compound `CC(c1ccco1)N(C(=O)C12CC3CC(CC(C3)C1)C2)c1ccncc1` (centres unmarked) [Example 3], the “Relative Activity (relative luciferase activity)” value (from here on “Relative Activity”) is recorded as “≧10”.

As to `CC(c1ccco1)N(C(=O)C12CC3CC(CC(C3)C1)C2)c1cccnc1` (centres unmarked) [Example 2], the “Relative Activity” value amounted to 5.

Turning to `CC(c1ccco1)N(C(=O)C12CC3CC(CC(C3)C1)C2)c1ccccc1` (centres unmarked) [Example 4], the “Relative Activity” value turned out to be 3.

`CC(c1ccco1)N(C(=O)C12CC3CC(CC(C3)C1)C2)c1ccccn1` (centres unmarked) [Example 1]: the “Relative Activity” value is on record as 4.

With `CC(c1ccccn1)N(C(=O)C1(C)CCCCC1)C(C)c1ccco1` (centres unmarked) [Example 5], the “Relative Activity” value is reported as “≧10”.
